Measurements taken from patent US20210401931A1, “METHODS AND MATERIALS FOR TREATING CANCER” (Mayo Foundation for Medical Education and Research, priority 2018, published 2021).
Ends that are not written are not given here.

Legend:
p65 = biological target: T1, p65 (Homo sapiens, UniProt Q04206); assay: Co-IP of p65 by SFB-tagged RL peptide in 293T cells; type: binding; details: 48 hours after transfection
T1 construct: endogenous in cells; host or cells: 293T
Method: FIGS. 10A-G. (A) Schematic diagram depicting a set of RB-N recombinant protein constructs. Western blot analysis of p65 proteins in PC-3 cells whole cell lysate pulled down by GST or GST-RB-N recombinant proteins. Stars indicate expected molecular weight. (B) Western blot analysis of in vitro transcribed and translated p65 proteins pulled down by GST or GST-RB recombinant proteins. Stars indicate expected molecular weight. (C) Western blot analysis of WCL and co-IP samples in 293T cells 48 h after transfected with indicated constructs. (D) Schematic diagram depicting an evolutionally conserved R-linker region in the N-terminal of RB. FIG. 10D discloses SEQ ID NOS 265 and 271-274, respectively, in order of appearance. (E) Western blot analysis of WCL and co-IP samples in 293T cells 48 hours after transfected with indicated constructs. (F) PC-3 cells were transfected with indicated plasmids. Western blot analysis of HA-RB proteins in PC-3 whole cell lysate pulled down by GST or GST-p65 recombinant proteins. Stars indicate expected molecular weight. (G) Schematic diagram depicting fully positively charged RB-N allows otherwise negatively charged by S249/T252 phosphorylation to bind to negatively charged 166FSLMV170 motif (SEQ ID NO: 286) in EID1. FIG. 10G discloses SEQ ID NOS 265-266 and 275, respectively, in order of appearance. […]

PD-L1 = PD-L1 expression (western blot, RT-qPCR) in PC-3 cells expressing RL peptide; type: cell-based, human; details: for gamma irradiation-induced upregulation of PD-L1: 12 Gy
Method: FIGS. 5A-K. The importance of S249/T252 phosphorylation of RB in regulation of PD-L1 expression. (A, B) PC-3 cells were infected with lentivirus expressing control shRNA, RB1-specific, p65-specific, or both shRNA. 48 hours post puromycin selection, cells were harvested for western blotting (A) and RT-qPCR analysis (B). All data were shown as mean values±SD (n=3). * P<0.05, ** P<0.01, *** P<0.001. (C, D) DU145 cells were transfected with indicated plasmids. 24 hours after transfection, cells were harvested for western blotting analysis (C) and RT-qPCR analysis (D). All data were shown as mean values±SD (n=3). * P<0.05, ** P<0.01, *** P<0.001. (E, F) DU145 cells were transfected with indicated plasmids. 24 hours after transfection, cells were harvested for western blotting analysis (E) and RT-qPCR analysis (F). All data were shown as mean values±SD (n=3). * P<0.05, ** P<0.01, *** P<0.001. (G, H) PC-3 cells were infected with lentivirus expressing control shRNA or p65-specific shRNAs. After 24 hours, cells were further transfected with empty vector or SFB-RL-S249D/T252D for another 24 hours followed by western blot analysis (G) and RT-qPCR analysis (H). All data were shown as mean values±SD (n=3). * P<0.05, ** P<0.01, *** P<0.001. (I) Representative images of IHC of anti-PD-L1 and anti-pRB-S249/T252 antibodies of TMA (n=145 TMA elements) tissue sections. Scale bars were shown as indicated. (J) Heatmap showing IHC score of PD-L1 and pRB-S249/T252 in TMA. (K) Correlation analysis of IHC score for expression of PD-L1 and pRB-S249/T252 polypeptides in prostate cancer patient specimens (n=145 TMA elements). Pearson's product-moment correlation co-efficiency and the P values were also shown.
FIGS. 6A-J. The small S249/T252 phosphorylation-mimicking polypeptide of RB blocks irradiation-induced PD-L1 expression and inhibits cancer immune evasion. (A, B) PC-3 cells were infected with lentivirus expressing control shRNA or p65-specific or shRNA. 24 hours after puromycin selection, cells were treated with or without gamma irradiation (IR) (12 Gy). 48 hours after IR treatment, cells were harvested for western blotting analysis (A) and RT-qPCR analysis (B). All data were shown as mean values±SD (n=3). * P<0.05, ** P<0.01, *** P<0.001. (C, D) PC-3 cells were treated with without gamma irradiation (12 Gy). Cells were harvested at the indicated time point for western blotting analysis (C) and RT-qPCR analysis (D). All data were shown as mean values±SD (n=3). * P<0.05, ** P<0.01, *** P<0.001. (E) Western blot analysis of WCL and co-IP samples in PC-3 cells 48 hours after treated with or without gamma irradiation (12 Gy). (F) ChIP-qPCR analysis of p65 binds at the PD-L1 promotor in PC-3 cells 48 hours after treated with or without gamma irradiation (12 Gy). All data were shown as mean values±SD (n=3). * P<0.05, ** P<0.01, *** P<0.001. (G, H) PC-3 cells were treated with or without gamma irradiation (12 Gy). 24 hours post treatment, cells were transfected with indicated constructs. 24 hours after transfection, cells were harvested for western blotting analysis (G) and RT-qPCR analysis (H). All data were shown as mean values±SD (n=3). * P<0.05, ** P<0.01, *** P<0.001. (I) PTEN-CaP8 mouse prostate cancer cells were transduced with lentivirus for control vector or the small RB S249/T252-phosphorylation-mimicking polypeptide RL-S249D/T252D. 72 hours after purimycin selection, 5×10^6 control or RL-S249D/T252D-expressing cells were injected subcutaneously into C57BL/6 mice. Mice (n=8/group) were treated with gamma irradiation (12 Gy) or mock treated, and with anti-PD-L1 (200 μg) or non-specific IgG for 45 days. (J) The absolute number of CD45^+CD8^+ T cells, CD45^+CD4^+ T cells, and CD11b^+Gr1^+ myeloid cells of implanted PTEN-CaP8 in tumors treated with indicated agents was analyzed by FACS. All data were shown as mean values±SD (n=8). ns, not significant, *** P<0.001.
Total RNA was isolated using TRIzol reagent (Thermo Fisher Scientific). […]

T1 sequence (Q04206 whole entry): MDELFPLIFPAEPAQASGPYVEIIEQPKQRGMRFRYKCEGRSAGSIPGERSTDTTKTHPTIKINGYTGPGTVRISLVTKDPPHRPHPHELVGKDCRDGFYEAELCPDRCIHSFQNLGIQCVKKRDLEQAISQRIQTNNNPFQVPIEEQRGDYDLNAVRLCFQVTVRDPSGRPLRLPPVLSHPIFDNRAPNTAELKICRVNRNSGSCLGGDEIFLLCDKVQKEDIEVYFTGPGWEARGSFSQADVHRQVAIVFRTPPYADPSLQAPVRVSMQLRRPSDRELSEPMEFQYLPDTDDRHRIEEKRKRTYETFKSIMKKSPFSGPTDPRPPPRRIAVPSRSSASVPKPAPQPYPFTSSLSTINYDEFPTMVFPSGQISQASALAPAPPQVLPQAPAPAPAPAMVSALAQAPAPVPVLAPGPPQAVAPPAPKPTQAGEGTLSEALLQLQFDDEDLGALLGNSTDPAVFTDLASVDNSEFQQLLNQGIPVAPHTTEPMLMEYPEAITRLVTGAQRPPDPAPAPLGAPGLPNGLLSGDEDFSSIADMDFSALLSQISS

RL-S249D/T252D: S249/T252 phospho-mimicking R-Linker (RL) peptide: fragment of RB-N containing 21 amino acids surrounding S249/T252, expressed SFB-tagged or by lentivirus (NGDPRDPRRGQNRSARIAKQL; also: expressed SFB-tagged (tag left off))
immunoprecipitation of p65 by SFB-tagged RL peptide (p65): effectively immunoprecipitated | PD-L1 expression in p65-proficient cells (PD-L1; PC-3 cells transfected with SFB-tagged peptide, 24 hours): largely inhibited | PD-L1 expression (FIG. 6G) (PD-L1; PC-3 cells transfected with peptide construct): almost completely blocked | PD-L1 expression in p65-depleted cells (PD-L1; PC-3 cells with p65 shRNA, transfected with SFB-tagged peptide, listed as RL-S249/T252D peptide): little or no effect | gamma irradiation-induced upregulation of PD-L1 (PD-L1; PC-3 cells, ectopic expression of peptide): largely, but not completely blocked | gamma irradiation-induced upregulation of PD-L1 (PD-L1; PC-3 cells, ectopic expression of peptide, listed as RL-S249/T252D): largely diminished | PD-L1 basal level (PD-L1; PC-3 cells, ectopic expression of peptide, no irradiation): decreased
